Results as given in patent US20250352541A1, “THERAPEUTIC FOR CANCER REFRACTORY TO IMMUNE CHECKPOINT INHIBITOR” (Sumitomo Pharma Co., Ltd., priority 2022, published 2025).
pIC50: −log10 of the molar value.

Key:
CHK1 = CHK1 (Homo sapiens (Human), UniProt O14757); experiment: CHK1 inhibitory activity test (IMAP TR-FRET)
hERG current = hERG current (Homo sapiens (Human), UniProt Q12809); experiment: hERG current blocking test; conditions: for hERG/CHK1: IC50 of hERG divided by IC50 of CHK1 inhibition; for pIC50: read-out: hERG inhibition IC50, hERG expressing CHO cells
hERG current, sequence (Q12809 whole entry): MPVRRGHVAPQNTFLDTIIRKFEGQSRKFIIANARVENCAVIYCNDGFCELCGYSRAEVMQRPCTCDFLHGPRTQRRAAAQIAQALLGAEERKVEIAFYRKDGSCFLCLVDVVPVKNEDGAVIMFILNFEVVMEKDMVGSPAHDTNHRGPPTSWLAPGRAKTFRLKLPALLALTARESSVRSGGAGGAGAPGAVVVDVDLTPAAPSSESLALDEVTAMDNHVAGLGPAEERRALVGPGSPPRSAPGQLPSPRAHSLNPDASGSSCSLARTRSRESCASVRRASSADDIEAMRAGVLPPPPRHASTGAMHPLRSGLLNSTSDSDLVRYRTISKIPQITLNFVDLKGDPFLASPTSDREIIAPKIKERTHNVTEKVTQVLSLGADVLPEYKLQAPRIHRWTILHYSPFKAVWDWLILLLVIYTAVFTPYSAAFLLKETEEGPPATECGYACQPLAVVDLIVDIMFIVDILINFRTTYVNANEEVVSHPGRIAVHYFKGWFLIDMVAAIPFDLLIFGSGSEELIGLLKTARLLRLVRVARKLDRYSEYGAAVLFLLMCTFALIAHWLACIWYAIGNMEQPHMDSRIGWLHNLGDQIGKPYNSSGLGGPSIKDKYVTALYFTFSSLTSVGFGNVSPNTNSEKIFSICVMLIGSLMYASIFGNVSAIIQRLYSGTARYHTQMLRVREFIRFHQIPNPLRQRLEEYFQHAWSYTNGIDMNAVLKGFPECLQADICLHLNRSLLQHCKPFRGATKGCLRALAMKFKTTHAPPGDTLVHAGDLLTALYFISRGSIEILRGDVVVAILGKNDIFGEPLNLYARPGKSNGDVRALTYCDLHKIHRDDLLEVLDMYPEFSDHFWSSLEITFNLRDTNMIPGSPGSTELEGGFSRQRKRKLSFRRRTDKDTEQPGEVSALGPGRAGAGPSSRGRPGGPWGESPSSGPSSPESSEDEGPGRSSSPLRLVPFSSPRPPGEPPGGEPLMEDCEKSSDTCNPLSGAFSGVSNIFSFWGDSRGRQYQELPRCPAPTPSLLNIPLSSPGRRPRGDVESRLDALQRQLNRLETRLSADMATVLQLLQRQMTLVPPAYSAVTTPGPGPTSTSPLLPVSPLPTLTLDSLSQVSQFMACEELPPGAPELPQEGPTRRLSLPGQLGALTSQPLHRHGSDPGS

ES-2 cells = experiment: Cell growth suppression experiment; format: cell-based
Protocol: ES-2 cells were obtained from the American Type Culture Collection (ATCC). These cells were cultured at 37° C. in the presence of 5% CO2 in a 10% fetal bovine serum, 1% penicillin/streptomycin containing McCoy's 5a medium.
500 cells were seeded for each well in a 384-well plate, and the evaluated compound was added so that the final concentration of DMSO would be 0.1% to culture the cells for 2 days. After completion of the culture, the cell viability rate was calculated using CellTiter-Glo® 3D Reagent (Promega, G968B).
The results of cell growth suppression test on representative compounds of the present disclosure are listed in the following table based on the ranking of I, IT, III, IV, and V (1000 nM<I, 1000 nM>TI>300 nM, 300 nM>III>100 nM, 100 nMV>IV>30 nM, 30 nM>V).

CHK1, sequence (O14757 whole entry): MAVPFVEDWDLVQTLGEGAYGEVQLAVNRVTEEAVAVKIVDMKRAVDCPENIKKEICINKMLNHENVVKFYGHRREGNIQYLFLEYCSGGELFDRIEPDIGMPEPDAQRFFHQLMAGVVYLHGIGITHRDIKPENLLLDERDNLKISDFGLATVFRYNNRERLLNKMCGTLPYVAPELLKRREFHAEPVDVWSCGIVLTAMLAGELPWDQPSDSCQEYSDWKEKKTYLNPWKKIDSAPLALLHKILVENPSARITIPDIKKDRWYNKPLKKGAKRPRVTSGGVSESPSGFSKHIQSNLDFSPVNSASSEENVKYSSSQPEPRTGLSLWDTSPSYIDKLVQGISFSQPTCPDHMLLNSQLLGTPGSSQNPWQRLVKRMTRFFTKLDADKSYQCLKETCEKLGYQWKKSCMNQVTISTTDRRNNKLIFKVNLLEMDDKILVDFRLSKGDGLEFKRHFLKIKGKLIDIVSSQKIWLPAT

| Compound | pIC50 (CHK1) | hERG/CHK1 (hERG current) | pIC50 (hERG current) | effect of suppressing CHK1 activity compared with prexasertib (CHK1) | cell growth suppression effect compared with prexasertib (ES-2 cells) |
| --- | --- | --- | --- | --- | --- |
| COc1ccnc(OCCCN)c1-c1cc(Nc2cnc(C(F)(F)F)cn2)n[nH]1 [Example 16, N-{5-[2-(3-aminopropoxy)-4-methoxypyridin-3-yl]-1-H-pyrazol-3-yl}-5-(trifluoromethyl)pyrazin-2-amine] | 8.52 | <888 | > 5.57 | – | – |
| COc1cncc(OCCCN)c1-c1cc(Nc2cnc(C#N)cn2)n[nH]1 [Example 3, 5-({5-[3-(3-aminopropoxy)-5-methoxypyridin-4-yl]-1H-pyrazol-3-yl}amino)pyrazine-2-carbonitrile] | 9.66 | – | – | more potent effect of suppressing CHK1 activity than prexasertib | excellent cell growth suppression effect that is equivalent to that of prexasertib |
| COc1cncc(OCC2(CN)CC2)c1-c1cc(Nc2cnc(C#N)cn2)n[nH]1 [Example 11, 5-{[5-(3-{[1-(aminomethyl)cyclopropyl]methoxy}-5-methoxypyridin-4-yl)-1H-pyrazol-3-yl]amino}pyrazine-2-carbonitrile] | 9.74 | – | – | more potent effect of suppressing CHK1 activity than prexasertib | excellent cell growth suppression effect that is equivalent to that of prexasertib |
| COc1nccc(OCCCN)c1-c1cc(Nc2cnc(C#N)cn2)n[nH]1 [Example 4, 5-({5-[4-(3-aminopropoxy)-2-methoxypyridin-3-yl]-1H-pyrazol-3-yl}amino)pyrazine-2-carbonitrile] | 9.64 | – | – | more potent effect of suppressing CHK1 activity than prexasertib | excellent cell growth suppression effect that is equivalent to that of prexasertib |
| COc1nccc(OCC2(C)CNC2)c1-c1cc(Nc2cnc(C#N)cn2)n[nH]1 [Example 6, 5-[(5-{2-methoxy-4-[(3-methylazetidin-3-yl)methoxy]pyridin-3-yl}-1H-pyrazol-3-yl)amino]pyrazine-2-carbonitrile] | 9.57 | – | – | more potent effect of suppressing CHK1 activity than prexasertib | excellent cell growth suppression effect that is equivalent to that of prexasertib |
| COc1cncc(OC[C@H]2CNCCO2)c1-c1cc(Nc2cnc(C#N)cn2)n[nH]1 (stereo in doubt) [Example 13, 5-[(5-{3-methoxy-5-[(morpholin-2-yl)methoxy]pyridin-4-yl}-1H-pyrazol-3-yl)amino]pyrazine-2-carbonitrile] | 9.13 | <3649 | > 5.57 | – | – |
| COc1cncc(OC[C@H](C)CN)c1-c1cc(Nc2cnc(C#N)cn2)n[nH]1 [Example 28] | 9.30 | – | – | more potent effect of suppressing CHK1 activity than prexasertib | excellent cell growth suppression effect that is equivalent to that of prexasertib |
| CNCCCOc1cncc(OC)c1-c1cc(Nc2cnc(C#N)cn2)n[nH]1 [Example 31, 5-[(5-{3-methoxy-5-[3-(methylamino)propoxy]pyridin-4-yl}-1H-pyrazol-3-yl)amino]pyrazine-2-carbonitrile] | 9.12 | – | – | – | excellent cell growth suppression effect that is equivalent to that of prexasertib |
| COc1cncc(O[C@@H]2CCC[C@H](N)C2)c1-c1cc(Nc2cnc(C#N)cn2)n[nH]1 [Example 19, 5-{[5-(3-{[(1R,3S)-3-aminocyclohexyl]oxy}-5-methoxypyridin-4-yl)-1H-pyrazol-3-yl]amino}pyrazine-2-carbonitrile] | 9.59 | – | – | more potent effect of suppressing CHK1 activity than prexasertib | excellent cell growth suppression effect that is equivalent to that of prexasertib |
| COc1cncc(O[C@H](C)C2CNC2)c1-c1cc(Nc2cnc(C#N)cn2)n[nH]1 [Example 33, 5-[(5-{3-[(1R)-1-(azetidin-3-yl)ethoxy]-5-methoxypyridin-4-yl}-1H-pyrazol-3-yl)amino]pyrazine-2-carbonitrile] | 9.16 | – | – | – | excellent cell growth suppression effect that is equivalent to that of prexasertib |
| COc1cncc(O[C@@H]2CC[C@@H](N)C2)c1-c1cc(Nc2cnc(C#N)cn2)n[nH]1 [Example 32, 5-{[5-(3-{[(1R,3R)-3-aminocyclopentyl]oxy}-5-methoxypyridin-4-yl)-1H-pyrazol-3-yl]amino}pyrazine-2-carbonitrile] | – | – | – | – | excellent cell growth suppression effect that is equivalent to that of prexasertib |
| CN[C@@H]1CC[C@@H](Oc2cncc(OC)c2-c2cc(Nc3cnc(C#N)cn3)n[nH]2)C1 [Example 35, 5-{[5-(3-methoxy-5-{[(1R,3R)-3-(methylamino)cyclopentyl]oxy}pyridin-4-yl)-1H-pyrazol-3-yl]amino}pyrazine-2-carbonitrile] | 9.21 | – | – | – | excellent cell growth suppression effect that is equivalent to that of prexasertib |
| COc1nccc(OCC2(CN)CC2)c1-c1cc(Nc2cnc(C#N)cn2)n[nH]1 [Example 38, 5-{[5-(4-{[1-(aminomethyl)cyclopropyl]methoxy}-2-methoxypyridin-3-yl)-1H-pyrazol-3-yl]amino}pyrazine-2-carbonitrile] | 9.15 | – | – | – | excellent cell growth suppression effect that is equivalent to that of prexasertib |
| COc1ncnc(OCC2(CN)CC2)c1-c1cc(Nc2cnc(C#N)cn2)n[nH]1 [Example 23, 5-{[5-(4-{[1-(aminomethyl)cyclopropyl]methoxy}-6-methoxypyrimidin-5-yl)-1H-pyrazol-3-yl]amino}pyrazine-2-carbonitrile] | 9.10 | – | – | – | excellent cell growth suppression effect that is equivalent to that of prexasertib |
| COc1cncc(OC[C@@H](C)CN)c1-c1cc(Nc2cnc(C#N)cn2)n[nH]1 [Example 27] | 8.46 | – | – | – | excellent cell growth suppression effect that is equivalent to that of prexasertib |
| COc1cncc(OC[C@H]2CCNC2)c1-c1cc(Nc2cnc(C#N)cn2)n[nH]1 [Example 21, (S)-5-[(5-{3-methoxy-[5-(pyrrolidin-3-yl)methoxy]pyridin-4-yl}-1H-pyrazol-3-yl)amino]pyrazine-2-carbonitrile] | 9.54 | – | – | more potent effect of suppressing CHK1 activity than prexasertib | excellent cell growth suppression effect that is equivalent to that of prexasertib |
| COc1ccnc(OCCCN)c1-c1cc(Nc2cnc(Cl)cn2)n[nH]1 [Example 15, N-{5-[2-(3-aminopropoxy)-4-methoxypyridin-3-yl]-1-H-pyrazol-3-yl}-5-chloropyrazin-2-amine] | 9.59 | – | – | more potent effect of suppressing CHK1 activity than prexasertib | excellent cell growth suppression effect that is equivalent to that of prexasertib |
| COc1cncc(OCC2(C)CNC2)c1-c1cc(Nc2cnc(C#N)cn2)n[nH]1 [Example 25, 5-[(5-{3-methoxy-5-[(3-methylazetidin-3-yl)methoxy]pyridin-4-yl}-1H-pyrazol-3-yl)amino]pyrazine-2-carbonitrile] | 9.13 | – | – | – | excellent cell growth suppression effect that is equivalent to that of prexasertib |
| COc1cncc(O[C@H]2C[C@H](N)[C@H]3C[C@H]32)c1-c1cc(Nc2cnc(C#N)cn2)n[nH]1 [Example 36, 5-{[5-(3-{[(1R,2S,4S,5S)-4-aminobicyclo[3.1.0]hexan-2-yl]oxy}-5-methoxypyridin-4-yl)-1H-pyrazol-3-yl]amino}pyrazine-2-carbonitrile] | 9.14 | – | – | – | excellent cell growth suppression effect that is equivalent to that of prexasertib |
| COc1cncc(OCC2(C(F)F)CNC2)c1-c1cc(Nc2cnc(C#N)cn2)n[nH]1 [Example 26, 5-{[5-(3-{[3-(difluoromethyl)azetidin-3-yl]methoxy}-5-methoxypyridin-4-yl)-1H-pyrazol-3-yl]amino}pyrazine-2-carbonitrile] | 9.85 | – | – | more potent effect of suppressing CHK1 activity than prexasertib | excellent cell growth suppression effect that is equivalent to that of prexasertib |
